Measurements reported in patent publication US11458198B2, “HPV epitopes targeted by T cells infiltrating cervical malignancies for use in vaccines” (Academisch Ziekenhuis Leiden H.O.D.N. LUMC, priority 2007, dated 2022).

Experiments:
Assay type in all cases: cell-based, human
HPV-specific T cells = test: Fine specificity with single peptides (proliferation and IFNγ production); details: patients C265, C334, C284, C228 respectively
Experimental: T cell cultures (25,000-50,000 cells/well) were tested on pulsed autologous monocytes or irradiated autologous EBVs for the recognition of HPV16 and 18 E6 and E7 peptides (5 μg/ml) and protein (10 μg/ml) in triplicate in a 3 day proliferation assay. After 48 hours supernatant was harvested and stored at −20° C. for cytokine analysis. During the last 16 hours of culture 0.5 μCi/well [^3H]thymidine was added to measure proliferation (van der Burg et al. 2001). Antigen specific IFNγ production was measured by ELISA as described earlier (van der Burg et al. 1999).
Following the evaluation of HPV-specific reactivity, the 19 responding T cell lines were expanded by stimulation with cognate peptide, cytokine mix and feeder cells. Fifteen of these HPV-specific cultures could be sufficiently expanded for further analysis. The fine specificity of the HPV-specific T cells was determined in short-term stimulation assays using single peptides. Five cultures recognized 2 or more distinct peptides, whereas the other 10 cultures recognized a single peptide (FIG. 1B, Table 1). To assess the type of T cell that responded to antigenic stimulation, the T cell cultures were stimulated with their cognate peptide and protein antigens and the response was analyzed by intra-cellular IFNγ staining (FIG. 2). The majority of the TIL cultures contained HPV-specific CD4+ infiltrating T lymphocytes (n=13 patients, 13 different peptides recognized), whereas HPV-specific CD8^+ T cells infiltrating lymphocytes were found in 6 cultures. In 9 of the HPV-specific T cell lines only a CD4^+ T cell response was detected, in 4 T cell lines both CD4^+ T cells and CD8^+ T cells reacted and in 2 T cell lines only a CD8 T cells response was detected (Table 1, FIG. 2).

[1] = tested on: skin test infiltrating lymphocytes; test: Intracellular cytokine staining of T cell cultures from positive skin reaction sites
Text: Skin tests, based on Delayed Type Hypersensitivity reactions (DTH), can be used as a sensitive and simple method for in vivo measurement of HPV-specific cellular immune responses (Hopfl, 2000; Hopfl, 1991). The skin test preparations consisted of 8 pools of long clinical-grade synthetic peptides spanning the whole HPV 16 E6 and E7 protein and the most immunogenic regions of HPV 16 E2 protein (de Jong, 2004). These clinical grade peptides were produced in the interdivisional GMP-Facility of the LUMC. Each pool of the skin test consisted of 2 or 3 synthetic peptides, indicated by the first and last amino acid of the region in the protein covered by the peptides. Pool 1: E231-60, E246-75, Pool 2: E2301-330, E2316-345, Pool 3: E61-31, E619-50 (SEQ ID NO: 28), Pool 4: E641-65 (SEQ ID NO: 29), E655-80 (SEQ ID NO: 30), E671-95 (SEQ ID NO: 31), Pool 5: E685-109 (SEQ ID NO: 32), E691-122 (SEQ ID NO: 33), Pool 6: E6109-140 (SEQ ID NO: 34), E6127-158 (SEQ ID NO: 35), Pool 7: E71-35 (SEQ ID NO: 36), E722-56 (SEQ ID NO: 37), Pool 8: E743-77 (SEQ ID NO: 38), E764-98 (SEQ ID NO: 39). Pool 3 comprises Seq ID 5, 22 and 23. Pool 4 comprises Seq IDs 7-9. Pool 5 comprises Seq IDs 11 and 12. Pool 6 comprises Seq IDs 13, 14, 24 and 25. Pool 7 comprises Seq ID 15 and 26. Pool 8 comprises Seq IDs 16 and 17. Per peptide pool 0.05 ml of 0.2 mg/ml peptides in 16% DMSO in 20 mM isotonic phosphate buffer (10 μg/peptide) was injected intracutaneously. The pools of peptides and a negative control (dissolvent only) were injected separately at individual skin test sites of the upper arm. Skin test sites were inspected at least three times, at 72 hours and 7 days after injection (Hopfl) of the peptides and at 3 weeks following the first report of a very late skin reaction in one of the first healthy subjects. […]
The specificity and character of the T cell cultures derived from positive skin reaction sites was tested by ICS as reported previously (de Jong, 2005). […] After incubation at 4° C., the cells were washed, fixed with 1% paraformaldehyde and analyzed by flow cytrometry (FACSscan, BD Biosciences)

[2] = tested on: HPV-specific T cell cultures; test: Intracellular cytokine staining for IFNγ, type of T cell responding; details: TIL culture of C265
Experimental: (§1) Enumeration of IFNγ producing T cells as measured by intracellular cytokine staining was performed as described earlier (de Jong et al. 2005). Briefly, APC were loaded with cognate peptide or recombinant protein and incubated with T cell cultures. After 1 hour of incubation 10 μg/ml Brefeldin A (Sigma) was added and incubated overnight. Hereafter the cells were fixed with 4% paraformaldehyde (Sigma) and permeabilized with 0.1% Saponin. The samples were subsequently stained with CD4-APC, CD8-PerCP and IFNγ-PE and analyzed by flow cytometry. The minimal peptide recognized by CD8 T cells was analysed by IFNγ ELISPOT (van der Burg et al. 2001, Welters et al. 2006, de Jong et al. 2002). CD8 T cell lines were seeded in triplicate wells at a density of 2×104 on a Multiscreen 96-well plate (Millipore, Etten-Leur, The Netherlands) coated with an IFNγ catch antibody (Mabtech. Nacha, Sweden). The microcultures were stimulated with 5 μg/ml 10-mer peptides and incubated overnight. Analysis of HLA restriction of CD8 T cells was performed using 5 μg/ml 10-mer peptide pulsed PBMC or B-LCL co-cultured with equal numbers of T cells. IFNγ specific spots were stained according to the instructions of the manufacturer (Mabtech). The number of spots was analysed on a fully automated computer assisted video imaging system (BIOSYS).

[3] = tested on: HPV-specific CD4+ and CD8+ T cells; test: HLA restriction and minimal epitope (blocking antibodies, partially HLA matched APC, IFNγ ELISPOT); details: HLA-A*0201-restricted tumor-infiltrating CD8+ T cells
Experimental: MHC class II blocking experiments were performed as reported before using murine monoclonal antibodies against HLA-DR (B8.11.2), HLA-DQ (SPV.L3) and HLA-DP (B7/21) (van der Burg et al. 1999). Peptide-pulsed APC were incubated with anti-MHC class II antibodies for 2 hours prior to the addition of T cells.
as §1, with “Analysis of HLA restriction of CD8 T cells was performed using 5 μg/ml 10-mer peptide pulsed PBMC or B-LCL co-cultured with equal numbers of T cells. IFNγ specific spots were stained according to the instructions of the manufacturer (Mabtech).” left out, “(BIOSYS). […]” for “(BIOSYS).”

Substance: HPV18E7.21-42: amino acids 21-42 of HPV18 E7 protein (IPVDLLCHEQLSDSEEENDEID; Human papillomavirus type 18)
- response of bulk culture to single peptide, proliferation and IFNγ production (FIG. 1B) (HPV-specific T cells): responded

Substance: HPV16E6.37-68: amino acids 37-68 of HPV16 E6 protein (CVYCKQQLLRREVYDFAFRDLCIVYRDGNPYA; Human papillomavirus type 16)
- response of bulk culture to single peptide, proliferation and IFNγ production (FIG. 1B) (HPV-specific T cells): responded
- response of CD8+ T cells isolated from the biopsy ([1]; subjects HD15 and HD16): responded

Substance: E6127-158: HPV16 E6 amino acids 127-158, clinical-grade long peptide (DKKQRFHNIRGRWTGRCMSCCRSSRTRRETQL; Human papillomavirus type 16)
- response of CD8+ T cells isolated from the biopsy ([1]; HD2, biopsy of pool 6): responded

Substance: HPV16E7 peptide 71-92: 22-mer peptide, amino acids 71-92 of HPV16 E7 (STHVDIRTLEDLLMGTLGIVCP; UniProt P03129 71-92, looked up, fragment)
- response of bulk culture to single peptide, proliferation and IFNγ production (FIG. 1B) (HPV-specific T cells): responded

Substance: HPV16 E6 41-62: 22-mer peptide, amino acids 41-62 of HPV16 E6 (KQQLLRREVYDFAFRDLCIVYR; UniProt P03126 41-62, looked up, fragment)
- type of T cell responding, intracellular IFNγ (FIG. 2) [2]: CD4^+ and CD8^+ T cell response

Substance: HPV16 E6109-140: HPV16 E6 amino acids 109-140, clinical-grade long peptide (RCINCQKPLCPEEKQRHLDKKQRFHNIRGRWT; Human papillomavirus type 16)
- response of CD8+ T cells isolated from the biopsy ([1]; HD2, biopsy of pool 6): responded

Substance: HPV16E7.11-19: amino acids 11-19 of HPV16 E7 protein (IVLHLEPQN; Human papillomavirus type 16)
- reactivity of CD8+ T cells compared with HPV16 E7.11-20 [3]: stronger reactivity

Substance: HPV16E6 peptide 137-158: 22-mer peptide, amino acids 137-158 of HPV16 E6 (GRWTGRCMSCCRSSRTRRETQL; UniProt P03126 137-158, looked up, fragment)
- response of bulk culture to single peptide, proliferation and IFNγ production (FIG. 1B) (HPV-specific T cells): responded
